Our source for the IC50 values is patent US20150353495A1 (PORTOLA PHARMACEUTICALS, INC., priority 2010, published 2015).

Holding throughout (format): biochemical
One assay deals with T1, TYK2 (Homo sapiens, UniProt P29597).
T1 construct: 5 μl of catalytic domain recombinant Kinase enzyme+Tyr peptide substrate (Invitrogen, CA); purchased Invitrogen
T1 sequence (P29597 897-1176 limits assumed): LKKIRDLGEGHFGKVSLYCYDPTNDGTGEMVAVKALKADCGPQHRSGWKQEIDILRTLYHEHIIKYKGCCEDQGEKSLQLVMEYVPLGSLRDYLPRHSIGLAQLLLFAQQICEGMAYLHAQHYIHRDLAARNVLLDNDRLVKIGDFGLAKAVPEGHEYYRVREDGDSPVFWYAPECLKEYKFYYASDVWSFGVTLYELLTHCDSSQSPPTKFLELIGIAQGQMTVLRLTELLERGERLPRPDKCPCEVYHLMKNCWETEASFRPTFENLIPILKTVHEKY
Nature of the assay: Z'-LYTE kinase assay TYK2. In outline: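 Recombinant catalytic-domain TYK2 with Tyr6 peptide in Z′-LYTE FRET format, 1% DMSO final, kinase reaction 1 h at room temperature, then protease development 1 h. Fluorescence read at 445/520 nm (excitation 400 nm), percent phosphorylation vs no-inhibitor control, IC50 from 4-parameter logistic fit.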

A further assay addresses T2, JAK1 (Homo sapiens, UniProt P23458).
T2 construct: 5 μl of catalytic domain recombinant Kinase enzyme+Tyr peptide substrate (Invitrogen, CA); purchased Invitrogen
Nature of the assay: Z'-LYTE kinase assay JAK1. Put shortly:
(§1)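 Catalytic-domain recombinant kinase was incubated with Tyr6 FRET peptide, ATP and compound (1% DMSO final) for 1 h at room temperature. Protease development followed for 1 h, cleaving only non-phosphorylated peptide. Inhibition of phosphorylation was read as coumarin/fluorescein FRET fluorescence.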

Another assay deals with T3, JAK3 (Homo sapiens, UniProt P52333).
T3 construct: 5 μl of catalytic domain recombinant Kinase enzyme+Tyr peptide substrate (Invitrogen, CA); purchased Invitrogen
Briefly: Z'-LYTE kinase assay JAK3. In outline:
as §1

Another assay has as its target T4, JAK2 (Homo sapiens, UniProt O60674).
T4 construct: 5 μl of catalytic domain recombinant Kinase enzyme+Tyr peptide substrate (Invitrogen, CA); purchased Invitrogen
Briefly: Z'-LYTE kinase assay JAK2. In outline: as §1

T4 sequence (O60674 849-1124 limits assumed): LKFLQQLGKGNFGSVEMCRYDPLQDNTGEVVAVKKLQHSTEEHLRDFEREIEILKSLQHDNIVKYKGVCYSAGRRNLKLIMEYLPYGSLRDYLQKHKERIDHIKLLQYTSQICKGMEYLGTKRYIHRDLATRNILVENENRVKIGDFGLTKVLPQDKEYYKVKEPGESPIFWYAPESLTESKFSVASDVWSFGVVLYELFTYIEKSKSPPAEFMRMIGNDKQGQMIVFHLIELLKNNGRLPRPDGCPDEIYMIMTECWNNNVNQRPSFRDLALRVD
T3 sequence (P52333 822-1111 limits assumed): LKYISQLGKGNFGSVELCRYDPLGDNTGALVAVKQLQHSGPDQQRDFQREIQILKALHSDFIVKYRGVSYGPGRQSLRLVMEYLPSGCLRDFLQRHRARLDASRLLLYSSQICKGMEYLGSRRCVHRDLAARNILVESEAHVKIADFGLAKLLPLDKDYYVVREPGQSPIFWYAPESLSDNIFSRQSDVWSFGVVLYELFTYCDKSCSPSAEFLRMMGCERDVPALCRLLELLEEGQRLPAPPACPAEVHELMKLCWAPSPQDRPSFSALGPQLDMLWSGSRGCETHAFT
T2 sequence (P23458 875-1153 limits assumed): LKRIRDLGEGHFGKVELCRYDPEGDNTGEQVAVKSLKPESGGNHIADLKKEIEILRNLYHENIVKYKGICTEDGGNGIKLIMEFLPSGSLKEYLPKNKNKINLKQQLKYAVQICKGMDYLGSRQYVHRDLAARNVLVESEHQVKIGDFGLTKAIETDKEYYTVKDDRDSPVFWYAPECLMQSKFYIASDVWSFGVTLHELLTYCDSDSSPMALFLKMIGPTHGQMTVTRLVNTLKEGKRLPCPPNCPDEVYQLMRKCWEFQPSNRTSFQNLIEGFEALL

Regarding `Cc1cc(Nc2cc(NCc3ccccc3)c(C(N)=O)cn2)ccc1C(=O)N1CCCC1` [Example 446, 4-(benzylamino)-6-(3-methyl-4-(pyrrolidine-1-carbonyl)phenylamino)nicotinamide], the IC50 against TYK2 was 100 to 1000 nM; against JAK1 it was 100 to 1000 nM; on JAK3, 1 to 10 nM; on JAK2 it was 10 to 100 nM.

As for `Cc1cc(Nc2cc(NCc3ccccc3)c(C(N)=O)cn2)ccc1C(=O)N1CCOCC1` [Example 447, 4-(benzylamino)-6-(3-methyl-4-(morpholine-4-carbonyl)phenylamino)nicotinamide], the 50% inhibitory concentration (IC50) on TYK2 was in the range of 100 to 1000 nM; at JAK1, 100 to 1000 nM; against JAK3 it was 1 to 10 nM; at JAK2 it was 10 to 100 nM.

In the case of `Cc1cc(Nc2cc(NCc3ccccc3)c(C(N)=O)cn2)ccc1C(=O)N1CCC1` [Example 448, 6-(4-(azetidine-1-carbonyl)-3-methylphenylamino)-4-(benzylamino)nicotinamide], the IC50 against TYK2 lay in the range of 10 to 100 nM; at JAK1, 100 to 1000 nM; against JAK3, 1 to 10 nM; against JAK2 it was 10 to 100 nM.

As for `Cc1cc(Nc2cc(NCc3ccccc3)c(C(N)=O)cn2)ccc1C(=O)NCCO` [Example 449, 4-(benzylamino)-6-(4-(2-hydroxyethylcarbamoyl)-3-methylphenylamino)nicotinamide], the IC50 on TYK2 lay in the range of 100 to 1000 nM; at JAK1, 100 to 1000 nM; on JAK3, 1 to 10 nM; against JAK2, 100 to 1000 nM.

Turning to `Cc1cc(Nc2cc(NCc3ccccc3)c(C(N)=O)cn2)ccc1C(=O)N(C)C1CC1` [Example 450, 4-(benzylamino)-6-(4-(cyclopropyl(methyl)carbamoyl)-3-methylphenylamino)nicotinamide], the IC50 against TYK2 lay in the range of 10 to 100 nM; on JAK1 it was 100 to 1000 nM; at JAK3, 1 to 10 nM; at JAK2, 100 to 1000 nM.

Take `Cc1cc(Nc2cc(NCc3ccccc3)c(C(N)=O)cn2)ccc1C(=O)N1CC=CC1` [Example 451, 4-(benzylamino)-6-(4-(2,5-dihydro-1H-pyrrole-1-carbonyl)-3-methylphenylamino)nicotinamide]: the IC50 was in the range of 100 to 1000 nM on TYK2, 100 to 1000 nM on JAK1, 1 to 10 nM at JAK3 and 10 to 100 nM at JAK2.

In the case of `Cc1cc(Nc2cc(NCc3ccccc3)c(C(N)=O)cn2)ccc1C(=O)N(C)CCO` [Example 452], the IC50 against TYK2 lay within 100 to 1000 nM; against JAK1, 100 to 1000 nM; on JAK3 it was 1 to 10 nM; against JAK2 it was 10 to 100 nM.

On to `COCCN(C)C(=O)c1ccc(Nc2cc(NCc3ccccc3)c(C(N)=O)cn2)cc1C` [Example 453, 4-(benzylamino)-6-(4-((2-methoxyethyl)(methyl)carbamoyl)-3-methylphenylamino)nicotinamide], for which the 50% inhibitory concentration (IC50) was in the range of 100 to 1000 nM on TYK2, 100 to 1000 nM against JAK1, 1 to 10 nM on JAK3 and 10 to 100 nM on JAK2.

The IC50 is the concentration that gives 50% inhibition.
